{"source": "patent US11684614B2", "about": "“Formulations of hydroxypyridonate actinide/lanthanide decorporation agents” (priority 2017, dated 2023)", "experiment": "Repeated-treatment efficacy for removing an intravenous dose of 238Pu (excretion, tissue retention, clinical observations), female and male arms", "format": "in vivo, Swiss-Webster mice", "details": "listed as 3,4,3-LI(1,2-HOPO)", "experimental": "The objective of this study was to characterize the efficacy of 3,4,3-L1(1,2-HOPO) at enhancing elimination from an internal plutonium burden in female and male Swiss-Webster mice administered a soluble citrate complex of ^238Pu and treated multiple times, starting at 24 hours after the exposure. Efficacy was evaluated by comparing the tissue contents, urinary and fecal excretions of ^238Pu in treated animals versus untreated animals.\nThe medical countermeasure 3,4,3-L1(1,2-HOPO) was administered parenterally (ip) or orally (po) via consecutive injections or gavages (six daily or twelve twice daily) starting at 24 hours post contamination at the following four selected doses: 30 μmol/kg ip, 150 μmol/kg po, 300 μmol/kg po, and 600 μmol/kg po (equivalent to respective approximate human doses range of […], using the accepted conversion system of mouse doses into human equivalent doses—HED—based on body surface area). Oral doses also included the permeability enhancer selected during formulation development work.\n• Challenge isotope: ^238Pu • Challenge dose: 25 nCi (i.e., approximately 0.8 μCi/kg) • Route of contamination: Intravenous (iv) tail-vein • Route of treatment: Intraperitoneal Injection (ip) or Oral (po) • Frequency of treatment: Multiple (once- or twice-daily for 6 days) doses, starting 24 hr postcontamination • Treatment dose calculation: Dose calculations (mg/kg or μmol/kg) for the decorporation agent were based on the individual body weight measured after contamination. • Study Duration: 11 days, in-life\nc. […] Test article and control dose formulations were prepared within 1 day of dose administration, by weighing out the appropriate amount of test article, dispersing in vehicle. For ip solutions, the test article was used alone, while for oral suspensions, a mixture of test article and excipient (90:10, w:w) was used. The pH was adjusted to 7.0-7.4 for ip administration and 5.0-5.5 for oral administration with sterile NaOH. Dose formulations were prepared at room temperature and filter-sterilized. • Storage: 2-8° C.; refrigerated; protected from light. • Characterization: The concentration of each test article formulation was verified by high-performance liquid chromatography-mass spectrometry. • Test Article Handling: Test, reference, and control article formulations were handled with the use of eye protection, gloves, and a protective laboratory coat. • Correct Dose Assurance: The test article was weighed with calibrated balances. The administration of each dose formulation was properly documented, and the amount administered to each animal recorded.\ne. Experimental Procedures (In-Life Evaluations and Euthanasia) • Contamination: Single administration by intravenous (iv) tail-vein injection (0.2 mL injection volume) under isoflurane anesthesia. Three standard 0.2 mL injections were performed into polyethylene bottles and pre-loaded with aliquots of concentrated nitric acid on each injection day. Six female and six male mice were culled for necropsy 1 hr post-contamination and were used as standards. A11 standards were processed and counted together with the final samples to allow verification of the contamination dose. • Dose Administration: Single administration by intraperitoneal injection (ip) or oral gavage (po) under isoflurane anesthesia. • Mortality/Morbidity: Assessed at least once daily. • Clinical Observations: Recorded once daily (4 hr post-dose on day of treatment), or more often as clinical signs warranted. […]", "note": "Several values for one entry are separate records, joined by “and”; a condition that tells them apart may be missing. Equal values may be shown once.", "data": [{"compound": "O=C(NCCCN(CCCCN(CCCNC(=O)c1cccc(=O)n1O)C(=O)c1cccc(=O)n1O)C(=O)c1cccc(=O)n1O)c1cccc(=O)n1O", "note": "[3,4,3-L1(1,2-HOPO)]", "values": [{"measurement": "% Recovered Dose-Female Animals-Urine per Day-Day 11 Necropsy", "setting": "animal group H, day 8, female mice", "value": "0.66% and 1.22% and 0.77% and 0.75% and 0.78% and 0.99% and 0.49% and 1.24%"}, {"measurement": "% Recovered Dose-Female Animals-Urine per Day-Day 11 Necropsy", "setting": "animal group H, day 9, female mice", "value": "0.40% and 0.85% and 0.75% and 0.43% and 0.47% and 0.72% and 0.37% and 0.99%"}, {"measurement": "% Recovered Dose-Female Animals-Urine per Day-Day 11 Necropsy", "setting": "animal group H, day 10, female mice", "value": "0.31% and 0.47% and 0.39% and 0.29% and 0.19% and 0.50% and 0.25% and 0.54%"}, {"measurement": "% Recovered Dose-Female Animals-Urine per Day-Day 11 Necropsy", "setting": "animal group H, day 11, female mice", "value": "0.25% and 0.49% and 0.32% and 0.27% and 0.37% and 0.52% and 0.29% and 0.67%"}, {"measurement": "% Recovered Dose-Female Animals-Urine per Day-Day 11 Necropsy", "setting": "animal group I, day 1, female mice", "value": "7.77% and 13.56% and 9.39% and 8.83% and 9.40% and 8.09% and 8.07% and 7.99%"}, {"measurement": "% Recovered Dose-Female Animals-Urine per Day-Day 11 Necropsy", "setting": "animal group I, day 3, female mice", "value": "5.15% and 4.91% and 4.95% and 3.52% and 6.42% and 5.63% and 7.70%"}, {"measurement": "% Recovered Dose-Female Animals-Urine per Day-Day 11 Necropsy", "setting": "animal group I, day 4, female mice", "value": "2.76% and 3.63% and 3.08% and 3.06% and 4.72% and 4.39%"}, {"measurement": "% Recovered Dose-Female Animals-Urine per Day-Day 11 Necropsy", "setting": "animal group I, day 5, female mice", "value": "2.07% and 2.10% and 1.73% and 1.67% and 1.85% and 1.81% and 1.59%"}, {"measurement": "% Recovered Dose-Female Animals-Urine per Day-Day 11 Necropsy", "setting": "animal group I, day 6, female mice", "value": "1.80% and 2.08% and 1.82% and 1.64% and 2.11% and 1.61% and 1.48%"}, {"measurement": "% Recovered Dose-Female Animals-Urine per Day-Day 11 Necropsy", "setting": "animal group I, day 7, female mice", "value": "1.20% and 1.23% and 1.07% and 1.17% and 1.43% and 1.94% and 1.45%"}, {"measurement": "% Recovered Dose-Female Animals-Urine per Day-Day 11 Necropsy", "setting": "animal group I, day 8, female mice", "value": "0.79% and 1.03% and 0.78% and 0.83% and 0.67% and 0.96% and 0.90%"}, {"measurement": "% Recovered Dose-Female Animals-Urine per Day-Day 11 Necropsy", "setting": "animal group I, day 9, female mice", "value": "0.82% and 0.67% and 0.59% and 0.61% and 0.55% and 0.69% and 0.52%"}, {"measurement": "% Recovered Dose-Female Animals-Urine per Day-Day 11 Necropsy", "setting": "animal group I, day 10, female mice", "value": "0.78% and 0.49% and 0.52% and 0.32% and 0.31% and 0.55% and 0.45%"}, {"measurement": "% Recovered Dose-Female Animals-Urine per Day-Day 11 Necropsy", "setting": "animal group I, day 11, female mice", "value": "0.67% and 0.65% and 0.58% and 0.43% and 0.46% and 0.89% and 0.44%"}, {"measurement": "% Recovered Dose-Female Animals-Urine per Day-Day 11 Necropsy", "setting": "animal group L, day 1, female mice", "value": "5.35% and 10.51% and 3.65% and 5.09% and 9.71% and 8.91% and 9.38% and 5.37%"}, {"measurement": "% Recovered Dose-Female Animals-Urine per Day-Day 11 Necropsy", "setting": "animal group L, day 2, female mice", "value": "9.62% and 11.11% and 5.95% and 8.55% and 8.68% and 12.54% and 10.49% and 9.01%"}, {"measurement": "% Recovered Dose-Female Animals-Urine per Day-Day 11 Necropsy", "setting": "animal group L, day 3, female mice", "value": "5.07% and 4.30% and 2.41% and 3.68% and 5.39% and 4.44% and 3.21% and 5.10%"}, {"measurement": "% Recovered Dose-Female Animals-Urine per Day-Day 11 Necropsy", "setting": "animal group L, day 4, female mice", "value": "4.52% and 3.28% and 1.82% and 3.38% and 3.96% and 3.67% and 4.12% and 5.10%"}, {"measurement": "% Recovered Dose-Female Animals-Urine per Day-Day 11 Necropsy", "setting": "animal group L, day 5, female mice", "value": "2.41% and 2.57% and 6.05% and 2.26% and 2.77% and 2.39% and 2.74% and 3.54%"}, {"measurement": "% Recovered Dose-Female Animals-Urine per Day-Day 11 Necropsy", "setting": "animal group L, day 6, female mice", "value": "1.58% and 1.95% and 4.31% and 3.12% and 2.44% and 1.42% and 1.86% and 2.87%"}, {"measurement": "% Recovered Dose-Female Animals-Urine per Day-Day 11 Necropsy", "setting": "animal group L, day 7, female mice", "value": "2.68% and 4.39% and 2.50% and 2.41% and 2.29% and 1.58% and 2.14% and 2.03%"}, {"measurement": "% Recovered Dose-Female Animals-Urine per Day-Day 11 Necropsy", "setting": "animal group L, day 8, female mice", "value": "2.01% and 6.27% and 1.63% and 1.89% and 1.73% and 1.02% and 1.29% and 1.12%"}, {"measurement": "% Recovered Dose-Female Animals-Urine per Day-Day 11 Necropsy", "setting": "animal group L, day 9, female mice", "value": "0.99% and 3.81% and 0.96% and 1.05% and 0.50% and 0.53% and 0.57%"}, {"measurement": "% Recovered Dose-Female Animals-Urine per Day-Day 11 Necropsy", "setting": "animal group L, day 10, female mice", "value": "1.29% and 1.70% and 0.71% and 1.04% and 0.44% and 0.60% and 0.41%"}, {"measurement": "% Recovered Dose-Female Animals-Urine per Day-Day 11 Necropsy", "setting": "animal group L, day 11, female mice", "value": "0.70% and 1.28% and 0.58% and 0.75% and 0.68% and 0.40% and 0.72% and 0.59%"}, {"measurement": "% Recovered Dose-Female Animals-Urine per Day-Day 11 Necropsy", "setting": "animal group M, day 1, female mice", "value": "8.44% and 9.22% and 6.58% and 5.72% and 8.33% and 7.11% and 8.76% and 7.62%"}, {"measurement": "% Recovered Dose-Female Animals-Urine per Day-Day 11 Necropsy", "setting": "animal group M, day 2, female mice", "value": "6.23% and 7.89% and 7.02% and 10.02% and 10.31% and 12.05% and 7.08% and 9.14%"}, {"measurement": "% Recovered Dose-Female Animals-Urine per Day-Day 11 Necropsy", "setting": "animal group M, day 3, female mice", "value": "2.30% and 3.50% and 4.87% and 4.65% and 3.13% and 1.94% and 3.83% and 3.56%"}, {"measurement": "% Recovered Dose-Female Animals-Urine per Day-Day 11 Necropsy", "setting": "animal group M, day 4, female mice", "value": "3.18% and 2.79% and 3.46% and 4.28% and 3.48% and 2.77% and 2.90% and 3.40%"}, {"measurement": "% Recovered Dose-Female Animals-Urine per Day-Day 11 Necropsy", "setting": "animal group M, day 5, female mice", "value": "1.90% and 2.00% and 3.07% and 4.53% and 2.38% and 1.31% and 2.10% and 2.52%"}, {"measurement": "% Recovered Dose-Female Animals-Urine per Day-Day 11 Necropsy", "setting": "animal group M, day 6, female mice", "value": "2.20% and 3.65% and 3.85% and 2.48% and 2.57% and 1.91% and 3.39% and 2.63%"}, {"measurement": "% Recovered Dose-Female Animals-Urine per Day-Day 11 Necropsy", "setting": "animal group M, day 7, female mice", "value": "1.09% and 4.12% and 3.24% and 1.63% and 2.05% and 0.95% and 2.29% and 2.08%"}, {"measurement": "% Recovered Dose-Female Animals-Urine per Day-Day 11 Necropsy", "setting": "animal group M, day 8, female mice", "value": "1.16% and 1.96% and 1.85% and 1.17% and 1.59% and 1.23% and 1.36% and 1.47%"}, {"measurement": "% Recovered Dose-Female Animals-Urine per Day-Day 11 Necropsy", "setting": "animal group M, day 9, female mice", "value": "0.89% and 0.80% and 0.95% and 0.56% and 0.83% and 0.91% and 1.12% and 1.20%"}, {"measurement": "% Recovered Dose-Female Animals-Urine per Day-Day 11 Necropsy", "setting": "animal group M, day 10, female mice", "value": "0.48% and 0.61% and 0.71% and 0.70% and 1.03% and 1.20% and 1.18%"}]}]}
